The values that follow come from patent US7169785B2, “Methods and compositions of novel triazine compounds” (Reddy US Therapeutics, Inc., priority 2001, dated 2007).

One data set has as its system IL-6. The experiment in a line: TNF-α-induced IL-6 production determined by IL-6 ELISA in HAEC. To be noted: Homo sapiens, 24 h. It is filed as cell-based, human. For orientation: In an ELISA, binding on a coated surface is turned into a signal by an enzyme label.
Another data set has as its system HAEC. Nature of the data set: Toxicity to endothelial cells (HAEC) when TNF stimulated. It is filed as cell-based. Here is the method:
Human aortic endothelial cells (HAEC, Clonetics) were cultured according to manufacturer in growth medium (Clonetics): basal medium containing human epidermal growth factor, hydrocortisone, vascular endothelial growth factor, heparin binding growth factor-B, long R3-insulin-like growth factor-1, ascorbic acid, gentamicin/amphotericin and 5% FBS. These cell were allowed to reach at least 90% confluency before subjected to experimental treatments. Glycated human serum albumin (G-HSA) was from US Biologicals. Tumor necrosis factor α was from R&D Systems.
[…] All treatments, compound-added and controls were carried out in serum free media containing 0.2% albumin. Media from all conditions were collected and used for IL-6 ELISA.

In the next data set the test system is endothelial cells. The experiment in a line: Toxicity to endothelial cells when AGE stimulated. It is filed as cell-based, human. Here is the method:
Human aortic endothelial cells (HAEC, Clonetics) were cultured according to manufacturer in growth medium (Clonetics): basal medium containing human epidermal growth factor, hydrocortisone, vascular endothelial growth factor, heparin binding growth factor-B, long R3-insulin-like growth factor-1, ascorbic acid, gentamicin/amphotericin and 5% FBS. These cell were allowed to reach at least 90% confluency before subjected to experimental treatments. […] Tumor necrosis factor α was from R&D Systems.
All treatments, compound-added and controls were carried out in serum free media containing 0.2% albumin. Media from all conditions were collected and used for IL-6 ELISA.

Data set [1] deals with Human aortic smooth muscle cells. The experiment in a line: Smooth muscle cell proliferation assay (anti-proliferation assay, perlecan). It is filed as cell-based. To be noted: Homo sapiens, anti-proliferation assay (perlecan).
A further data set has as its system cells. The experiment in a line: Cytotoxicity / lactate dehydrogenase assay and visual observation of cells. It is filed as cell-based. Here is the method:
Assays for determining the activity of compounds capable of cytotoxic activity include those taught in herein and others that are well known in the art. In general, to determine if there is cytotoxic activity associated with a compound, cells of a particular type, in a growing stage or a quiescient stage, are treated with the compound of interest. Various parameters of cell death or cessation are used to measure the effects of the compound. For example, the amount of nucleic acid or protein synthesis can be measured or visual observation of the state of the cells, such as release from the substrate, can be used to measure the state of the cells.
An appropriate number of cells are plated in four 96-well plates, one plate for “day 0” and three plates for days 1–3. Cells are treated with at least one compound of the present invention in varying concentrations with and without the apoptosis inducer cisplatin (2 μM) (“+cis” or “−cis”). Unteated cells are also assayed with and without cisplatin. After transfection, the plates are incubated at 37° C. overnight.
An appropriate number of cells are plated in four 96-well plates, one plate for “day 0” and three plates for days 1–3. Cells are treated with at least one compound of the present invention in varying concentrations. The negative control cells have normal media conditions, a duplicate set of wells is treated with the composition in which the compound is provided, but there is no added compound and the positive control cells are treated with the apoptosis inducer cisplatin (2 μM). All of the cells are transfected with a vector having a promoter that is responsive to apoptosis conditions. When apoptosis occurs, the promoter is turned on and the lactic dehydrogenase gene is activated and the enzyme protein is made and active. Activity is easily detected with a color change. After transfection, the plates are incubated at 37° C. overnight.
About 8 mls of warmed alpha MEM LDH lysis buffer (2% Triton X100) and about 8 mls of culture media (½ dilution) are combined. Two 96-well v-bottom plates are prepared, one labeled “lysis” and one labeled “supernatant.” To lyse the cells, about 200 μl Alpha MEM lysis buffer (diluted ½) is added to one test plate from which the supernatant has been removed and added to the plate labeled supernatant. After mixing, about 200 μl of lysed cells are transferred to the lysis plate. Both the lysis and supernatant plates are centrifuged at about 1600 rpm for about 10 min. After centrifugation, about 100 μl of both the supernatant or lysate is transferred to corresponding 96-well flat-bottomed plates.
The assay for cytotoxicity uses the Cytotoxicity Detection Kit (LDH) from Roche Diagnostics Corp. (Indianapolis, Ind.). Using the directionts provided, the dye solution is mixed and added each well of the lysate and supernatant plate and incubated for up to 20–25 min at 15–25° C. in the dark.

The mark [2] stands for this setting: HAEC, @ 5 uM, read-out: % IL6 production compare to TNF stimulation of IL6 (100%).
Setting [3] is: endothelial cells, AGE stimulated.
[4] abbreviates: read-out: % IL6 production compare to TNF stimulation of IL6 (100%), HAEC, @ 5 uM.

Like-named read-outs stand apart in the source and are kept apart here. A value given as a limit tells only on which side of the number the result lay.

`COc1ccc(Nc2nc(NC3CCCCCC3)nc(NC3CCN(Cc4ccccc4)CC3)n2)cc1Cl` [Compound 134, N-(1-benzyl-piperidin-4-yl)-N′-(3-chloro-4-methoxy-phenyl)-N″-cycloheptyl-[1,3,5]-2,4,6-triamine]: the activity at 5 µM in the data set with IL-6 (setting [2]) stood at 55%. Also, the “cell death in TNF-stimulated IL6 test” value with HAEC (HAEC, @ 10 uM) was “total cell death”. Besides, the “Toxic (AGE-treated)” value in the data set on endothelial cells (setting [3]) was “toxic”.
`COc1ccc(Nc2nc(NC3CCCCCC3)nc(N(C)C3CCNCC3)n2)cc1F` [Compound 159, N^2-Cycloheptyl-N^4-(3-fluoro-4-methoxy-phenyl)-N^6-methyl-N^6piperidin-4-yl-1,3,5-triazine-2,4,6-triamine]: the IC50 in data set [1] (read-out: Activity (note 1)) is 3 to 7 µM; in data set [1] (read-out: Avg IC-50), 5.7 to 6.9 µM. Besides, the “cell death in TNF-stimulated IL6 test” value with HAEC (human, 24 h, 5 uM) is recorded as “total cell death @ 5 and10 uM”; in the data set on HAEC (human, 24 h, 10 uM), “total cell death @ 5 and10 uM”. The “Toxic (AGE-treated)” value with endothelial cells was “toxic”.
As to `CCN1CCCC1CNc1nc(Nc2ccc(OC)c(Cl)c2)nc(NC2CN3CCC2CC3)n1` (centres unmarked) [Compound 148], the IC50 is 3 to 7 µM in data set [1] (read-out: Activity (note 1)) and less than 5 µM in data set [1] (read-out: Avg IC-50). In the data set on IL-6 (setting [4]), the activity at 5 µM stood at 60%. Moreover, in the data set with HAEC (human, 24 h, 10 uM), the “cell death in TNF-stimulated IL6 test” value is given as “total cell death”. Besides, in the data set on endothelial cells, the “Toxic (AGE-treated)” value was “toxic”.
Turning to `CCN(CC)c1ccc(Nc2nc(NCC3CCCN3CC)nc(NC3CCCCCC3)n2)cc1Cl` (centres unmarked) [Compound 26, N^2-[3-chloro-4-(diethylamino)phenyl]-N^4-cycloheptyl-N^6-[(1-ethyl-2-pyrrolidinyl)methyl]-1,3,5-triazine-2,4,6-triamine], the IC50 was more than 7 µM in data set [1] (read-out: Activity (note 1)) and 7.73 µM in data set [1] (read-out: Avg IC-50). In addition, the activity at 10 µM in the data set with IL-6 (Compds tested @ 10 uM, HAEC, IL6, read-out: % IL6 production compare to TNF stimulation of IL6 (100%)) stood at 1%. In the data set on HAEC (TNF-stimulated HAEC, compound @ 10 uM), the cells floating was more than 50%.
On to `COc1ccc(Nc2nc(NC3CCCCCC3)nc(NC3CCNCC3)n2)cc1Cl` [Compound 135, N^2-(3-chloro-4-methoxy-phenyl)-N^4-cycloheptyl-N^6-piperidin-4-yl-1,3,5-triazine-2,4,6-triamine], for which the IC50 in data set [1] (read-out: Activity (note 1)) was 3 to 7 µM; in data set [1] (read-out: Avg IC-50), 5.83 µM. In addition, the activity at 5 µM with IL-6 (setting [2]) turned out to be 60%. In addition, in the data set on HAEC (HAEC, @ 10 uM), the “cell death in TNF-stimulated IL6 test” value is recorded as “total cell death”. In addition, the “Toxic (AGE-treated)” value in the data set with endothelial cells (setting [3]) is listed as “toxic”.
As to `CN1CCC(N(C)c2nc(Nc3ccc(O)c(Cl)c3)nc(NC3CCCCCC3)n2)CC1` [Compound 138], the IC50 in data set [1] (read-out: Activity (note 1)) was 3 to 7 µM; in data set [1] (read-out: Avg IC-50), 4.03 µM. Moreover, the “Toxic (AGE-treated)” value in the data set with endothelial cells was “toxic”.
Take `COc1ccc(Nc2nc(Nc3ccc(OC)c(Cl)c3)nc(N(C)C3CCN(C)CC3)n2)cc1Cl` [Compound 121]: in the data set on cells, the “Starts blunting by” value is 1 µM, the “Toxic by toxicity assay at” value turned out to be 0.75 µM and the “rounding by” value was found to be 5 µM. In the data set with IL-6 (setting [4]), the activity at 5 µM is 50%. In the data set with HAEC (HAEC, @ 5 uM), this molecule yielded a some toxicity of approximately 20%. For the same molecule, the “cell death in TNF-stimulated IL6 test” value in the data set on HAEC (human, 24 h, 10 uM) was “total cell death”. The “Toxic (AGE-treated)” value in the data set on endothelial cells was “toxic”.
